What is called Ki is a measure of affinity in units of concentration, obtained from inhibition or displacement.

From BindingDB's records for doi:10.1021/jm00043a011 (University of Athens, 1994) come the findings set out here.

*1 amine or outer side, *2 acyl side, *3 side chain or, on linkers, in order; H or OH if unused. Where a SMILES comes first, the peptide text is derived from it. [ ]: non-standard residue; d: D form. PheΨ(PO2HCH2)Gly = O=C(CCP(=O)(O)[C@H](Cc1ccccc1)N[*:1])[*:2]; X2 = O=C(CCP(=O)(O)[C@@H](Cc1ccccc1)N[*:1])[*:2]; X1 = O=C(CCP(O)(O)=C(Cc1ccccc1)N[*:1])[*:2]; Nle = CCCC[C@H](N)C(=O)O

The first assay in a line: Binding constant containing a pseudophenylalanine residue.
Take `CCCCC1NC(=O)[C@H]2CCCN2C(=O)CCP(=O)(O)[C@@H](Cc2ccccc2)NC(=O)[C@@H]2CCCN2C(=O)CCNC1=O` (stereo partly drawn) [(6S,9S,22R)-6-Benzyl-19-butyl-5-hydroxy-5-oxo-1,7,13,17,20-pentaaza-5lambda*5*-phospha-tricyclo[20.3.0.0*9,13*]pentacosane-2,8,14,18,21-pentaone]: affinity was put at a Ki of 0.09 µM.

Experiment in another assay: as above
The source holds these as a separate data set.
For the compound `CCCC[C@@H]1NC(=O)[C@@H]2CCCN2C(=O)CCP(O)(O)=C(Cc2ccccc2)NC(=O)[C@@H]2CCCN2C(=O)CNC1=O` (cyclo(GP[X1]P[Nle])), the inhibition constant Ki was 0.12 µM.

The nature of the next assay: Inhibition of bacterial collagenase from corynebacterium rathaii.
Regarding `O=C1NCC(=O)N2CCC[C@H]2C(=O)N[C@@H](Cc2ccccc2)P(=O)(O)CCC(=O)N2CCC[C@@H]12`, the Ki came out at 9 µM.

For `COC(=O)[C@@H]1CSSC[C@H](NC(C)=O)C(=O)N2CCC[C@H]2C(=O)N[C@H](Cc2ccccc2)P(=O)(O)CCC(=O)N2CCC[C@H]2C(=O)N1`, the affinity corresponds to a Ki of 3 µM.

`COC(=O)[C@H]1CSSC[C@@H](NC(C)=O)C(=O)N2CCC[C@@H]2C(=O)N[C@@H](Cc2ccccc2)P(=O)(O)CCC(=O)N2CCC[C@@H]2C(=O)N1` gave a Ki of 45 µM.

Turning to `CCCC[C@@H]1NC(=O)[C@@H]2CCCN2C(=O)CCP(=O)(O)[C@H](Cc2ccccc2)NC(=O)[C@@H]2CCCN2C(=O)CNC1=O`, the Ki is 0.18 µM.

Compound `O=C1NCC(=O)N2CCC[C@H]2C(O)N=C(Cc2ccccc2)P(O)(O)=CCC(=O)N2CCC[C@@H]12` (stereo partly drawn) had an inhibitory constant (Ki) of 6 µM.

Compound `C[C@@H]1NC(=O)[C@@H]2CCCN2C(=O)[C@H](C)NC(=O)CCP(=O)(O)[C@H](Cc2ccccc2)NC(=O)[C@@H]2CCCN2C(=O)CNC1=O` (cyclo(AGP[PheΨ(PO2HCH2)Gly]AP)) registered an inhibition constant (Ki) of 20 µM.

Regarding `C[C@@H]1NC(=O)[C@@H]2CCCN2C(=O)[C@H](C)NC(=O)CCP(=O)(O)[C@@H](Cc2ccccc2)NC(=O)[C@@H]2CCCN2C(=O)CNC1=O` (cyclo(AGP[X2]AP)), the Ki is 12 µM.

As for `CCCC[C@@H]1NC(=O)[C@@H]2CCCN2C(=O)CCP(O)(O)=C(Cc2ccccc2)NC(=O)[C@@H]2CCCN2C(=O)CNC1=O` (cyclo(GP[X1]P[Nle])), the affinity, expressed as Ki, was 0.12 µM. Compared with the last compound, the Ki is about 100-fold lower.

With `CCCC[C@@H]1NC(=O)[C@@H]2CCCN2C(=O)CCP(=O)(O)[C@H](Cc2ccccc2)NC(=O)[C@@H]2CCCN2C(=O)[C@H](CO)NC1=O` (cyclo([Nle]SP[PheΨ(PO2HCH2)Gly]P)), the affinity corresponds to a Ki of 40 µM.

For the compound `CCCC[C@@H]1NC(=O)[C@@H]2CCCN2C(=O)CCP(O)(O)=C(Cc2ccccc2)NC(=O)[C@@H]2CCCN2C(=O)[C@H](CO)NC1=O` (cyclo([Nle]SP[X1]P)), the affinity corresponds to a Ki of 25 µM.

`CCCCC1NC(=O)[C@H]2CCCN2C(=O)CCP(=O)(O)[C@@H](Cc2ccccc2)NC(=O)[C@@H]2CCCN2C(=O)CCNC1=O` (stereo partly drawn) [(6S,9S,22R)-6-Benzyl-19-butyl-5-hydroxy-5-oxo-1,7,13,17,20-pentaaza-5lambda*5*-phospha-tricyclo[20.3.0.0*9,13*]pentacosane-2,8,14,18,21-pentaone] yielded a Ki of 0.09 µM.
